Structures can show the parent of a compound that is named as a salt.
What was measured:
[1] = test system: spontaneous hypertensive rats; assay: Hypotensive activity in non-narcotized, heart-catheterized spontaneous hypertensive rats; assay type: in vivo; details: Rattus norvegicus, oral, lowest blood pressure during 6 hours after administration, read-out: Hypotensive ratio
Description: Hypotensive activity As the experimental animal, spontaneous hypertensive rats 5 to 7 months after birth with a body weight of 300 to 370 g were used. The blood pressure and the heart beat of the non-narcotized, heart-catheterized rats were operatively determined to calculate the averages in blood pressure and heart beat prior to the administration of the present compound. Successively during 6 hours after orally administering the present compound, the blood pressure and the heart beat were determined to calculate the hypotensive ratio by the following formula: [formula] wherein X is the average in blood pressure before administration; and Y is the value of the lowest blood pressure after the administration.

[2] = Acute toxicity (LD50, Litchfield-Wilcoxon method), oral administration to mouse; details: in vivo
Description: The present compound was orally administered to mouse and the acute toxicity value (LD50) was calculated according to Litchfield-Wilcoxonmethod.

Row | SMILES | inhibition in vivo at 3 mg/kg [1] | inhibition in vivo at 10 mg/kg [1] | LD50 [2] | inhibition in vivo at 0.3 mg/kg [1] | inhibition in vivo at 1 mg/kg [1]
1 | NC(=O)c1cc(C(=O)CCCCN2CCN(c3ccccc3Cl)CC2)ccc1O [Compound No. 13, 5-[5-[4-(2-chlorophenyl)-1-piperazinyl]valeryl]salicylamide] | 19.7% | 16.5% | – | – | –
2 | COc1ccccc1N1CCN(CCCCC(=O)c2ccc(O)c(NC(C)=O)c2)CC1 [Compound No. 23, 5-[5-[4-(2-methoxyphenyl)-1-piperazinyl]valeryl]-2-hydroxyacetanilide] | 36.5% | – | – | – | –
3 | COc1ccc(C(=O)CCCCN2CCN(c3ccccc3OC)CC2)cc1NC(N)=O [Compound No. 26, 5-[5-[4-(2-methoxyphenyl)-1-piperazinyl]valeryl]-2-methoxy-N-carbamoylaniline] | 31.8% | – | 2700 mg/kg | – | –
4 | COc1ccccc1N1CCN(CCCCC(=O)c2ccc3c(c2)NC(=O)CCO3)CC1 [Compound No. 41, 7-[5-[4-(2-methoxyphenyl)-1-piperazinyl]valeryl]-2,3,4,5-tetrahydro-1,5-benzoxazepine-4-one] | 35.6% | – | – | 25.9% | 33%
5 | COc1ccc(C(O)CN2CCN(c3ccccc3)CC2)cc1NC(N)=O (centres unmarked) [Control 3, reference compound] | 5.6% | 9.4% | – | – | –
6 | COc1ccccc1N1CCN(CCCCC(=O)c2ccc(O)c(C(N)=O)c2)CC1 [Compound No. 12, 5-[5-[4-(2-methoxyphenyl)-1-piperazinyl]valeryl]-salicylamide] | 35.2% | – | > 3000 mg/kg | – | –
7 | COc1ccc(C(O)CN2CCN(c3ccccc3)CC2)cc1S(N)(=O)=O (centres unmarked) [Control 1, reference compound] | – | 2.5% | – | – | 10.5%
8 | O=C1CSc2ccc(C(=O)CCCN3CCN(c4ccccn4)CC3)cc2N1 [Compound No. 49] | 45.7% | – | – | – | 10.9%
9 | O=C(O)c1cc(C(O)CCCCN2CCN(c3ccccn3)CC2)ccc1O (centres unmarked) [Compound No. 17, 5-[5-[4-(2-pyridyl)-1-piperazinyl]-1-hydroxypentyl]salicylic acid] | 21.1% | 15.7% | – | – | –
10 | COc1ccc(C(=O)CCCCN2CCN(c3ccccc3OC)CC2)cc1NS(C)(=O)=O [Compound No. 29, 5-[5-[4-(2-methoxyphenyl)-1-piperazinyl]valeryl]-2-methoxy-N-methanesulfonylaniline dihydrochloride] | 37.3% | – | – | – | 22.8%
11 | NC(=O)c1cc(C(=O)CN2CCN(c3ccccc3)CC2)ccc1O [Control 2, 5[2(4-phenyl-1-piperazinyl)acetyl]salicylamide, reference compound] | 13.7% | 6.6% | – | – | 9.9%
12 | COc1ccccc1N1CCN(CCCCC(=O)c2ccc(SC)c(S(N)(=O)=O)c2)CC1 [Compound No. 6, 5-[5-[4-(2-methoxyphenyl)-1-piperazinyl]valeryl]-2-methylthio-benzenesulfonamide] | 24.3% | 23% | > 3000 mg/kg | – | 16.1%
13 | COc1ccccc1N1CCN(CCCCC(=O)c2ccc(SC)c(NC(N)=O)c2)CC1 [Compound No. 34, 5-[5-[4-(2-methoxyphenyl)-1-piperazinyl]valeryl]-2-methylthio-N-carbamoylaniline] | 28.9% | 39.9% | – | – | 17.6%
14 | COc1ccccc1N1CCN(CCCCC(=O)c2ccc([S+](C)[O-])c(NC(N)=O)c2)CC1 (centres unmarked) [Compound No. 35, 5-[5-[4-(2-methoxyphenyl)-1-piperazinyl]valeryl]-2-methylsulfinyl-N-carbamoylaniline] | 25.6% | 47.9% | > 3000 mg/kg | 16.5% | 16.1%
15 | COc1ccccc1N1CCN(CCCCC(=O)c2ccc(OC)c(S(N)(=O)=O)c2)CC1 [Compound No. 2, 5-[5-[4-(2-methoxyphenyl)-1-piperazinyl]valeryl]-2-methoxy-benzenesulfonamide dihydrochloride] | 19.7% | – | – | 10.5% | 34.6%
16 | COc1ccccc1N1CCN(CCCCC(=O)c2ccc([S+](C)[O-])c(S(N)(=O)=O)c2)CC1 (centres unmarked) [Compound No. 7, 5-[5-[4-(2-methoxyphenyl)-1-piperazinyl]valeryl]-2-methylsulfinyl-benzenesulfonamide] | 17.5% | 31.3% | – | – | 8.9%

From patent US4613598A, “Piperazine derivatives and their acid addition salts” (Mitsubishi Chemical Industries Limited, priority 1984, dated 1986)
